Legend:
[1] = target: T1, His tagged PTPN2 (TC45) protein (Homo sapiens, UniProt P17706); test: Mobility shift assay used to determine potency of PTPN2 inhibitors; assay type: biochemical; details: enzyme 0.5 nM, substrate 2 μM; read-out: PTPN2 MSA IC50
T1 construct: made in house
T1 sequence (P17706 with tags, fused parts or gaps isoform P17706-2): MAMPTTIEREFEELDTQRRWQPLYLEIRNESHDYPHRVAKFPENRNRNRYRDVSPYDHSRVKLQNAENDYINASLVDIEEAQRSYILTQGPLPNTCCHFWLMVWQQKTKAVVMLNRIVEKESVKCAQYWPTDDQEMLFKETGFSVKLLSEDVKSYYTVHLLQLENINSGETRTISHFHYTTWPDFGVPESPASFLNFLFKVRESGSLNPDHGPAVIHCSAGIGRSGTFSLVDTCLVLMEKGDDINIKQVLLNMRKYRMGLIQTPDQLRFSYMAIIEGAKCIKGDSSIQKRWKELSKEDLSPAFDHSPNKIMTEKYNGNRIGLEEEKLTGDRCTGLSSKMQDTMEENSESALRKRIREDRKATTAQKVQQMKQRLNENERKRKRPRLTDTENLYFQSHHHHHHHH
Protocol: Example 227: Mobility Shift Assay Used to Determine Potency of PTPN2 Inhibitors
Compound activity was determined using in house His tagged PTPN2 (TC45) protein (SEQ ID NO: 1) in an in vitro enzymatic reaction. The enzymatic assay used to determine activity was a mobility shift assay using a LabChip EZ Reader by Caliper Life Sciences. The enzymatic reaction was carried out in assay buffer (50 mM HEPES pH 7.5, 1 mM EGTA, 10 mM EDTA, 0.01% Tween® 20, and 2 mM DTT). The compounds were dispensed on a white 384 well ProxiPlate™ (PerkinElmer Catalog #6008289) plate using the Labcyte Echo at varying concentrations (12 point, 1:3 dilution). The enzyme (at 0.5 nM) was incubated with compound for 10 minutes at room temperature. Then the substrate (phosphorylated insulin receptor probe sequence: ((OG488)-(NH—CH2—CH2—O—CH2—CH2—O—CH2—CO)-T-R-D-I-(PY)-E-T-D-Y-Y-R-K-K-NH2) (SEQ ID NO: 2) was added at 2 μM to the plates and incubated for another 10 minutes at room temperature. Finally, a quench solution (water and 4-bromo-3-(2-oxo-2-propoxyethoxy)-5-(3-{[1-(phenylmethanesulfonyl)piperidin-4-yl]amino}phenyl)thiophene-2-carboxylic acid) was added to the plates, which were then run on the EZ Reader (excitation 488 nm, emission 530 nm) to measure % conversion (the amount of phosphorylated substrate which was de-phosphorylated by PTPN2). […] The % inhibition was then used to calculate the IC50 values.

[2] = target: T2, His tagged full-length PTPN1 protein (Homo sapiens, UniProt P18031); test: Mobility shift assay (MSA) used to determine potency of PTPN1 inhibitors; assay type: biochemical; details: enzyme 0.5 nM, substrate 2 μM
T2 construct: made in house
T2 sequence (P18031 with tags, fused parts or gaps): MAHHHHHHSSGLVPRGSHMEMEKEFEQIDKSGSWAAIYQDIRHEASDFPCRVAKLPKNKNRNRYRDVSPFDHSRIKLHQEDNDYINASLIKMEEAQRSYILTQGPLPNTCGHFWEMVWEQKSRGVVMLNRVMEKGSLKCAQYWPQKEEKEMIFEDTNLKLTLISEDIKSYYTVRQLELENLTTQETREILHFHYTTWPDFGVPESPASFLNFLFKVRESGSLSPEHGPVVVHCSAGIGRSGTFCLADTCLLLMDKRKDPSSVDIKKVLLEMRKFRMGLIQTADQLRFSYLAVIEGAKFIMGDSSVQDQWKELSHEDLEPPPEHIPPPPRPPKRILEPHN
Protocol: Example 228: Mobility Shift Assay (MSA) Used to Determine Potency of PTPN1 Inhibitors
Compound activity was determined using in house His tagged full-length PTPN1 protein (SEQ ID NO: 3) in an in vitro enzymatic reaction. The enzymatic assay used to determine activity is a mobility shift assay using a LabChip EZ Reader by Caliper Life Sciences. The enzymatic reaction was carried out in assay buffer (50 mM HEPES pH 7.5, 1 mM EGTA, 10 mM EDTA, 0.01% Tween® 20, and 2 mM DTT). The compounds were dispensed on a white 384 well ProxiPlate™ (PerkinElmer Cat^# 6008289) plate using a Labcyte Echo® liquid handler at varying concentrations (12 point, 1:3 dilution). The enzyme (at 0.5 nM) was incubated with compound for 10 minutes at room temperature. Then the substrate (phosphorylated insulin receptor probe sequence: ((OG488)-(NH—CH2—CH2—O—CH2—CH2—O—CH2—CO)-T-R-D-I-(PY)-E-T-D-Y-Y-R-K-K-NH2) (SEQ ID NO: 2) was added at 2 μM to the plates and incubated for another 10 minutes at room temperature. Finally, a quench solution (water and 4-bromo-3-(2-oxo-2-propoxyethoxy)-5-(3-{[1-(phenylmethanesulfonyl)piperidin-4-yl]amino}phenyl)thiophene-2-carboxylic acid) was added to the plates, which were then run on the EZ Reader (excitation 488 nm, emission 530 nm) to measure % conversion (the amount of phosphorylated substrate which was de-phosphorylated by PTPN1). […] The % inhibition was then used to calculate the IC50 values.

Structure (SMILES) | IC50 [2] [µM] | IC50 [1] [µM]
O=C1CN(c2c(O)cc3c(c2F)CN(C[C@H]2C[C@@H]2c2ccncc2)CC3)S(=O)(=O)N1 (racemic) [Compound 248, 5-(8-fluoro-6-hydroxy-2-{[rac-(1R,2R)-2-(pyridin-4-yl)cyclopropyl]methyl}-1,2,3,4-tetrahydroisoquinolin-7-yl)-1λ^6,2,5-thiadiazolidine-1,1,3-trione] | 0.01 to 0.1 | 0.01 to 0.1
CC(C)CCOC1CCc2cc(O)c(N3CC(=O)NS3(=O)=O)c(F)c2C1 (stereo not shown) [Compound 100, 5-[1-fluoro-3-hydroxy-7-(3-methylbutoxy)-5,6,7,8-tetrahydronaphthalen-2-yl]-1λ^6,2,5-thiadiazolidine-1,1,3-trione] | 0.001 to 0.01 | 0.01 to 0.1
O=C1CN(c2c(O)cc3c(c2F)CC(CCC2CC2)CC3)S(=O)(=O)N1 (stereo not shown) [Compound 105, 5-[7-(2-cyclopropylethyl)-1-fluoro-3-hydroxy-5,6,7,8-tetrahydronaphthalen-2-yl]-1λ^6,2,5-thiadiazolidine-1,1,3-trione] | 0.001 to 0.01 | 0.001 to 0.01
COC1CCc2c(F)c(O)c(N3CC(=O)NS3(=O)=O)c(F)c2C1 (stereo not shown) [Compound 114, 5-(1,4-difluoro-3-hydroxy-7-methoxy-5,6,7,8-tetrahydronaphthalen-2-yl)-1λ^6,2,5-thiadiazolidine-1,1,3-trione] | 0.01 to 0.1 | 0.01 to 0.1
COCC(C)(C)CCNC1CCc2cc(O)c(N3CC(=O)NS3(=O)=O)c(F)c2C1 (stereo not shown) [Compound 121, 5-{1-fluoro-3-hydroxy-7-[(4-methoxy-3,3-dimethylbutyl)amino]-5,6,7,8-tetrahydronaphthalen-2-yl}-1λ^6,2,5-thiadiazolidine-1,1,3-trione] | 0.01 to 0.1 | 0.001 to 0.01
O=C1CN(c2c(O)cc3c(c2F)CC(OC(=O)Nc2ccccc2)CC3)S(=O)(=O)N1 (stereo not shown) [Compound 149, 8-fluoro-6-hydroxy-7-(1,1,4-trioxo-1λ^6,2,5-thiadiazolidin-2-yl)-1,2,3,4-tetrahydronaphthalen-2-yl Phenylcarbamate] | 0.01 to 0.1 | 0.001 to 0.01
CC(O)CCOC(=O)N1CCc2cc(O)c(N3CC(=O)NS3(=O)=O)c(F)c2C1 (stereo not shown) [Compound 171, 3-hydroxybutyl 8-fluoro-6-hydroxy-7-(1,1,4-trioxo-1λ^6,2,5-thiadiazolidin-2-yl)-3,4-dihydroisoquinoline-2(1H)-carboxylate] | 0.001 to 0.01 | 0.001 to 0.01
CC(C)[C@@H]1CN(C2CCc3cc(O)c(N4CC(=O)NS4(=O)=O)c(F)c3C2)CCO1 (stereo partly drawn) [Compound 182, 5-{1-fluoro-3-hydroxy-7-[(2R)-2-(propan-2-yl)morpholin-4-yl]-5,6,7,8-tetrahydronaphthalen-2-yl}-1λ^6,2,5-thiadiazolidine-1,1,3-trione] | 0.01 to 0.1 | 0.01 to 0.1

Further lines, with some results ahead:

IC50 [2] [µM] | Structure (SMILES) | IC50 [1] [µM]
0.01 to 0.1 | O=C1CN(c2c(O)cc3c(c2F)CC(C2CCN(CC4CC4)C2)CC3)S(=O)(=O)N1 (mixture of isomers) [Compound 140, 5-{7-[1-(cyclopropylmethyl)pyrrolidin-3-yl]-1-fluoro-3-hydroxy-5,6,7,8-tetrahydronaphthalen-2-yl}-1λ^6,2,5-thiadiazolidine-1,1,3-trione] | 0.01 to 0.1
0.01 to 0.1 | O=C1CN(c2c(O)cc3c(c2F)C[C@@H]([C@H]2CCNC2)CC3)S(=O)(=O)N1 (single isomer, unassigned) [Compound 138, 5-{(7RS)-1-fluoro-3-hydroxy-7-[(3SR)-pyrrolidin-3-yl]-5,6,7,8-tetrahydronaphthalen-2-yl}-1λ^6,2,5-thiadiazolidine-1,1,3-trione] | 0.01 to 0.1
0.01 to 0.1 | O=C1CN(c2c(O)cc3c(c2F)C[C@@H](NCCCC(F)(F)F)CC3)S(=O)(=O)N1 (single isomer, unassigned) [Compound 147] | 0.01 to 0.1
0.01 to 0.1 | CC(C)(CCN[C@H]1CCc2cc(O)c(N3CC(=O)NS3(=O)=O)c(F)c2C1)C(F)(F)F (single isomer, unassigned) [Compound 176] | 0.01 to 0.1
0.001 to 0.01 | O=C1CN(c2c(O)cc3c(c2F)CC(NCCC2CC2)CC3)S(=O)(=O)N1 (stereo not shown) [Compound 101, 5-{7-[(2-cyclopropylethyl)amino]-1-fluoro-3-hydroxy-5,6,7,8-tetrahydronaphthalen-2-yl}-1λ^6,2,5-thiadiazolidine-1,1,3-trione] | 0.001 to 0.01
0.01 to 0.1 | COC1CCc2cc(O)c(N3CC(=O)NS3(=O)=O)c(F)c2C1 (stereo not shown) [Compound 110, 5-(1-fluoro-3-hydroxy-7-methoxy-5,6,7,8-tetrahydronaphthalen-2-yl)-1λ^6,2,5-thiadiazolidine-1,1,3-trione] | 0.01 to 0.1
0.01 to 0.1 | O=C1CN(c2c(O)cc3c(c2F)CC(NCCN2CCC2)CC3)S(=O)(=O)N1 (stereo not shown) [Compound 115, 5-(7-{[2-(azetidin-1-yl)ethyl]amino}-1-fluoro-3-hydroxy-5,6,7,8-tetrahydronaphthalen-2-yl)-1λ^6,2,5-thiadiazolidine-1,1,3-trione] | 0.01 to 0.1
0.01 to 0.1 | CC(F)(F)CNC1CCc2cc(O)c(N3CC(=O)NS3(=O)=O)c(F)c2C1 (stereo not shown) [Compound 132, 5-{7-[(2,2-difluoropropyl)amino]-1-fluoro-3-hydroxy-5,6,7,8-tetrahydronaphthalen-2-yl}-1λ^6,2,5-thiadiazolidine-1,1,3-trione] | 0.01 to 0.1
0.01 to 0.1 | O=C1CN(c2c(O)cc3c(c2F)CC(NCCn2cccn2)CC3)S(=O)(=O)N1 (stereo not shown) [Compound 141, 5-(1-fluoro-3-hydroxy-7-{[2-(1H-pyrazol-1-yl)ethyl]amino}-5,6,7,8-tetrahydronaphthalen-2-yl)-1λ^6,2,5-thiadiazolidine-1,1,3-trione] | 0.001 to 0.01
0.01 to 0.1 | CC(C)CCN(Cc1ccccn1)C1CCc2cc(O)c(N3CC(=O)NS3(=O)=O)c(F)c2C1 (stereo not shown) [Compound 154, 5-(1-fluoro-3-hydroxy-7-{(3-methylbutyl)[(pyridin-2-yl)methyl]amino}-5,6,7,8-tetrahydronaphthalen-2-yl)-1λ^6,2,5-thiadiazolidine-1,1,3-trione] | 0.001 to 0.01
0.01 to 0.1 | CC(C)CCN(CCc1ccccn1)C1CCc2cc(O)c(N3CC(=O)NS3(=O)=O)c(F)c2C1 (stereo not shown) [Compound 167, 5-(1-fluoro-3-hydroxy-7-{(3-methylbutyl)[2-(pyridin-2-yl)ethyl]amino}-5,6,7,8-tetrahydronaphthalen-2-yl)-1λ^6,2,5-thiadiazolidine-1,1,3-trione] | 0.001 to 0.01
> 0.1 | O=C1CN(c2c(O)cc3c(c2F)CN(CC2CCCN2)CC3)S(=O)(=O)N1 (stereo not shown) [Compound 183, 5-{8-fluoro-6-hydroxy-2-[(pyrrolidin-2-yl)methyl]-1,2,3,4-tetrahydroisoquinolin-7-yl}-1λ^6,2,5-thiadiazolidine-1,1,3-trione] | > 0.1

Reference: patent publication US10851073B2, “Protein tyrosine phosphatase inhibitors and methods of use thereof” (Calico Life Sciences LLC, priority 2019, dated 2020)
